Laboratory results published in patent US20040248887A1, “Inhibitors of cathepsin S” (IRM LLC, priority 2003, published 2004).

Biological target: Cathepsin S (Homo sapiens, UniProt P25774)
Experiment: Cathepsin S inhibition, fluorogenic peptide substrate kinetic assay
Assay type: biochemical
Settings: Table II; Cathepsin S inhibition constant, pH5.5; read-out: Ki Cat. S
Summary of the method: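 Ki values derive from apparent constants fitted to progress curves, corrected for competition with substrate via [S] and Km. Kinetics were monitored at 380 nm excitation/450 nm emission, after substrate addition (Ac-HPVK-ACC, 50 μM final) to start the reaction.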

Cathepsin S, sequence (P25774 115-331, species assumed): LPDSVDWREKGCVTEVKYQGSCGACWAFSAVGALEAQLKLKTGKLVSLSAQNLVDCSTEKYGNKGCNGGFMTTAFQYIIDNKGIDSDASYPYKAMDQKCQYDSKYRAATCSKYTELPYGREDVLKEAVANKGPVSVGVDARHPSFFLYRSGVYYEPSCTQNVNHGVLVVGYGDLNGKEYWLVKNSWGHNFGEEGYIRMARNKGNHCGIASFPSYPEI

Row | SMILES | Ki [nM]
1 | C[C@@H](CNc1ccc(C#N)cc1)NC(=O)[C@H](CC1CCCCC1)NC(=O)c1ccc(-c2cccc(F)c2)o1 [Compound 93, 5-(3-Fluoro-phenyl)-furan-2-carboxylic acid {1-(S)-[2-(4-cyano-phenylamino)-1-(S)-methyl-ethylcarbamoyl]-2-cyclohexyl-ethyl}-amide] | < 1000
2 | C[C@@H](CN1CC(C)(C)c2cc(F)ccc21)NC(=O)[C@H](CC(C)(C)C)NC(=O)[C@H]1CCCO1 [Compound 271, Tetrahydro-furan-2-(R)-carboxylic acid {1-(S)-[2-(5-fluoro-3,3-dimethyl-2,3-dihydro-indol-1-yl)-1-(S)-methyl-ethylcarbamoyl]-3,3-dimethyl-butyl}-amide] | < 10000
3 | O=C(NCCN1CCc2cc(F)ccc21)[C@H](CC1CCCCC1)NS(=O)(=O)c1ccc(OC(F)(F)F)cc1 [Compound 230, (S)-3-Cyclohexyl-N-[2-(5-fluoro-2,3-dihydro-indol-1-yl)-ethyl]-2-(4-trifluoromethoxy-benzenesulfonylamino)-propionamide] | < 1000
4 | C[C@@H](CNc1ccc(OC(F)(F)F)cc1)NC(=O)[C@H](CC1CCCCC1)NC(=O)c1ccc(-c2cccnc2)o1 [Compound 143, 5-Pyridin-3-yl-furan-2-carboxylic acid {2-cyclohexyl-1-(S)-[1-(S)-methyl-2-(4-trifluoromethoxy-phenylamino)-ethylcarbamoyl]-ethyl}-amide] | < 100
5 | C[C@@H](CNc1cc(F)cc(F)c1)NC(=O)[C@H](CC1CCCCC1)NC(=O)c1ccc(-c2cccc(F)c2)o1 [Compound 87, 5-(3-Fluoro-phenyl)-furan-2-carboxylic acid {2-cyclohexyl-1-(S)-[2-(3,5-difluoro-phenylamino)-1-(S)-methyl-ethylcarbamoyl]-ethyl}-amide] | < 100

Next, values leading:

Row | Ki [nM] | SMILES
6 | < 100 | C[C@@H](CN1CCc2cc(F)ccc21)NC(=O)[C@H](CC1CCCCC1)NS(=O)(=O)c1ccccc1 [Compound 264, (S,S)-2-Benzenesulfonylamino-3-cyclohexyl-N-[2-(5-fluoro-2,3-dihydro-indol-1-yl)-1-methyl-ethyl]-propionamide]
7 | < 100 | C[C@@H](CN1CCc2cc(F)ccc21)NC(=O)[C@H](CC(C)(C)C)NC(=O)c1ccnnc1 [Compound 178, Pyridazine-4-carboxylic acid {1-(S)-[2-(5-fluoro-2,3-dihydro-indol-1-yl)-1-(S)-methyl-ethylcarbamoyl]-3,3-dimethyl-butyl}-amide]
8 | < 100 | O=C(C[C@@H](CN1CCc2cc(F)ccc21)NC(=O)[C@H](CC1CCCCC1)NC(=O)OCc1ccccc1)OCc1ccccc1 [Compound 168, 3-(S)-(2-(S)-Benzyloxycarbonylamino-3-cyclohexyl-propionylamino)-4-(5-fluoro-2,3-dihydro-indol-1-yl)-butyric acid benzyl ester]
9 | < 100 | CNS(=O)(=O)c1ccc(NC[C@H](C)NC(=O)[C@H](CC2CCCCC2)NC(=O)c2ccc(-c3cccc(F)c3)o2)cc1 [Compound 118, 5-(3-Fluoro-phenyl)-furan-2-carboxylic acid {2-cyclohexyl-1-(S)-[1-(S)-methyl-2-(4-methylsulfamoyl-phenylamino)-ethylcarbamoyl]-ethyl}-amide]
10 | < 100 | COc1ccc(NC[C@H](C)NC(=O)[C@H](CC2CCCCC2)NC(=O)c2ccc(-c3cccc(F)c3)o2)cc1 [Compound 86, 5-(3-Fluoro-phenyl)-furan-2-carboxylic acid {2-cyclohexyl-1-(S)-[2-(4-methoxy-phenylamino)-1-(S)-methyl-ethylcarbamoyl]-ethyl}-amide]
11 | < 100 | O=C(NCCN1CCc2cc(F)ccc21)[C@H](CC1CCCCC1)NS(=O)(=O)c1ccc(Oc2ccccc2)cc1 [Compound 226, (S)-3-Cyclohexyl-N-[2-(5-fluoro-2,3-dihydro-indol-1-yl)-ethyl]-2-(4-phenoxy-benzenesulfonylamino)-propionamide]
